Measurements from the OligoGym collection.
Where “and” joins values, the source holds several entries; their conditions need not be identical. Equal values may be shown once. After the bases stand the sugars from the 5' end (letter, count) and the backbone: PS all phosphorothioate, else s phosphorothioate and o phosphodiester by linkage. Methylation of C is not given here. e = 2'-O-(2-methoxyethyl) (MOE); k = constrained ethyl (cEt); d = 2'-deoxy (DNA)

Target: SOD1
Conditions: ASO

Sequence: TCTTTGTCAGCAGTCACATT (sugars e5 d10 e5, PS)
- target mRNA inhibition (HepG2, 5 µM): 20% and 11%

Sequence: GATACATTTCTACAGCTAGC (sugars e5 d10 e5, PS)
- target mRNA inhibition (HepG2, 4 µM): 78%
- target mRNA inhibition (HepG2, 12 µM): 90%

Sequence: TTTATTGGGCGATCCCA (sugars e2 k2 d8 k2 e3, PS)
- target mRNA inhibition (HepG2, 4 µM): 34%

Sequence: GCCGTCGCCCTTCAGCA (sugars e2 k2 d9 k2 e2, PS)
- target mRNA inhibition (HepG2, 4 µM): 57%

Sequence: AATACAGGTCATTGAAA (sugars e3 k2 d7 k2 e3, PS)
- target mRNA inhibition (HepG2, 3 µM): 6%

Sequence: AGTGTTTAATGTTTATC (sugars e2 k2 d8 k2 e3, linkages s1 o2 s9 o2 s2)
- target mRNA inhibition (A431, 0.12 µM): 31%
- target mRNA inhibition (A431, 0.6 µM): 68%
- target mRNA inhibition (A431, 3 µM): 83%
- target mRNA inhibition (A431, 15 µM): 86%
- target mRNA inhibition (HepG2, 0.222 µM): 68%
- target mRNA inhibition (HepG2, 0.667 µM): 76%
- target mRNA inhibition (HepG2, 2 µM): 86%
- target mRNA inhibition (HepG2, 6 µM): 84%

Sequence: CAGTTTCTCACTACAGGTAC (sugars e5 d10 e5, PS)
- target mRNA inhibition (HepG2, 5 µM): 25%

Sequence: TTAATGTTTATCAGGAT (sugars e2 k2 d9 k2 e2, linkages s1 o3 s9 o1 s2)
- target mRNA inhibition (A431, 0.12 µM): 12%
- target mRNA inhibition (A431, 0.6 µM): 48%
- target mRNA inhibition (A431, 3 µM): 54%
- target mRNA inhibition (A431, 15 µM): 72%

Sequence: TGCCATACAGGGTTTTT (sugars e2 k2 d8 k2 e3, PS)
- target mRNA inhibition (HepG2, 5 µM): 21%

Sequence: TTCTGCTCGAAATTGAT (sugars e3 k2 d7 k2 e3, PS)
- target mRNA inhibition (HepG2, 3 µM): 18%

Sequence: TTGGCCCACCGTGTTTTCTG (sugars e5 d10 e5, PS)
- target mRNA inhibition (HepG2, 5 µM): 35% and 26%

Sequence: CTACAGCTAGCAGGATA (sugars e3 k2 d7 k2 e3, PS)
- target mRNA inhibition (HepG2, 0.1875 µM): 44%
- target mRNA inhibition (HepG2, 0.75 µM): 62%
- target mRNA inhibition (HepG2, 3 µM): 55% and 80%
- target mRNA inhibition (HepG2, 12 µM): 86%

Sequence: TCCTTCTGCTCGAAATT (sugars e3 k2 d7 k2 e3, PS)
- target mRNA inhibition (HepG2, 3 µM): 14%

Sequence: TCTTTTAATAGCCTCAT (sugars e2 k2 d9 k2 e2, PS)
- target mRNA inhibition (HepG2, 5 µM): 56%

Sequence: CATAATAAGTGCCATAC (sugars e2 k2 d8 k2 e3, PS)
- target mRNA inhibition (HepG2, 5 µM): 32%

Sequence: GCCCACTCTGGCCCCAA (sugars e3 k2 d7 k2 e3, PS)
- target mRNA inhibition (HepG2, 3 µM): 22%

Sequence: AACTATACAAATCTTCC (sugars e2 k2 d9 k2 e2, PS)
- target mRNA inhibition (HepG2, 5 µM): 63%

Sequence: GCCTCAGACTACATCCA (sugars e2 k2 d9 k2 e2, PS)
- target mRNA inhibition (HepG2, 0.1875 µM): 34%
- target mRNA inhibition (HepG2, 0.75 µM): 59%
- target mRNA inhibition (HepG2, 3 µM): 87%
- target mRNA inhibition (HepG2, 4 µM): 82%
- target mRNA inhibition (HepG2, 12 µM): 95%

Sequence: CAAGTGATCATAAATCA (sugars e2 k2 d8 k2 e3, PS)
- target mRNA inhibition (HepG2, 5 µM): 47%

Sequence: TCAGCAGTCACATTGCCCAA (sugars e5 d10 e5, PS)
- target mRNA inhibition (HepG2, 5 µM): 52% and 42%

Sequence: GGGCGATCCCAATTACA (sugars e2 k2 d9 k2 e2, PS)
- target mRNA inhibition (HepG2, 4 µM): 30%

Sequence: CACATTGCCCAAGTCTCCAA (sugars e5 d10 e5, PS)
- target mRNA inhibition (HepG2, 5 µM): 36% and 19%

Sequence: TGGTCTCCTGAGAGTGAGAT (sugars e5 d10 e5, PS)
- target mRNA inhibition (HepG2, 5 µM): 24%

Sequence: TCTTTTAATAGCCTCAT (sugars e2 k2 d8 k2 e3, PS)
- target mRNA inhibition (HepG2, 5 µM): 52%

Sequence: CAGGATACATTTCTACA (sugars e2 k2 d9 k2 e2, PS)
- target mRNA inhibition (HepG2, 0.1875 µM): 38%
- target mRNA inhibition (HepG2, 0.75 µM): 71%
- target mRNA inhibition (HepG2, 3 µM): 89%
- target mRNA inhibition (HepG2, 4 µM): 85% and 86%
- target mRNA inhibition (HepG2, 12 µM): 91% and 97%

Sequence: ATAGCCTCATAATAAGTGCC (sugars e5 d10 e5, PS)
- target mRNA inhibition (HepG2, 5 µM): 19%

Sequence: ATACATTTCTACAGCTA (sugars e3 k2 d7 k2 e3, linkages s1 o2 s9 o2 s2)
- target mRNA inhibition (A431, 0.12 µM): 4%
- target mRNA inhibition (A431, 0.6 µM): 13%
- target mRNA inhibition (A431, 3 µM): 26%
- target mRNA inhibition (A431, 15 µM): 37%

Sequence: TACAGCTAGCAGGATAA (sugars e2 k2 d8 k2 e3, PS)
- target mRNA inhibition (HepG2, 0.1875 µM): 35%
- target mRNA inhibition (HepG2, 0.75 µM): 70%
- target mRNA inhibition (HepG2, 3 µM): 90%
- target mRNA inhibition (HepG2, 4 µM): 85% and 77%
- target mRNA inhibition (HepG2, 12 µM): 91% and 97%

Sequence: CACTACAGGTACTTTAA (sugars e2 k2 d8 k2 e3, PS)
- target mRNA inhibition (HepG2, 5 µM): 27%

Sequence: CCAGCACCCCGTCTCCGCGA (sugars e5 d10 e5, PS)
- target mRNA inhibition (HepG2, 4 µM): 38%

Sequence: CCCACCGTGTTTTCTGGATA (sugars e5 d10 e5, PS)
- target mRNA inhibition (HepG2, 5 µM): 46% and 40%

Sequence: TCATAAATCAGTTTCTCACT (sugars e5 d10 e5, PS)
- target mRNA inhibition (HepG2, 5 µM): 21%

Sequence: GAACATGGAATCCATGC (sugars e3 k2 d7 k2 e3, PS)
- target mRNA inhibition (HepG2, 3 µM): 9%

Sequence: ATCTTCCAAGTGATCAT (sugars e2 k2 d9 k2 e2, PS)
- target mRNA inhibition (HepG2, 5 µM): 38%

Sequence: ACAGTGTTTAATGTTTAT (sugars e5 d8 e5, linkages s1 o3 s9 o2 s2)
- target mRNA inhibition (A431, 0.12 µM): 0%
- target mRNA inhibition (A431, 0.6 µM): 18%
- target mRNA inhibition (A431, 3 µM): 26%
- target mRNA inhibition (A431, 15 µM): 45%
- target mRNA inhibition (HepG2, 0.222 µM): 19%
- target mRNA inhibition (HepG2, 0.667 µM): 30%
- target mRNA inhibition (HepG2, 2 µM): 46% and 50%
- target mRNA inhibition (HepG2, 6 µM): 70%
